ChEMBL document CHEMBL5550215, “Discovery of Novel Imidazo[1,2-a]pyridine-Based HDAC6 Inhibitors as an Anticarcinogen with a Cardioprotective Effect” (J Med Chem, 2024)
Calls of active or inactive are those of the source. No cut-off for these calls is given here.

Columns and labels:
[1] = system: H9c2; assay: Cardioprotective activity in H2O2 induced myocardial injury in rat H9c2 cells assessed as decrease in cell death at 2 to 8 uM; assay type: functional, cell-based; conditions: dose 2-8 µM
[2] = system: BGC-823; assay: Antiproliferative activity against human BGC-823 cells assessed as inhibition of cell growth by MTT assay
[3] = Half life in male Sprague-Dawley rat at 7 mg/kg,po measured upto 8 hrs by UPLC-MS/MS analysis; assay type: ADME, organism-based; conditions: in vivo
[4] = system: NCI-H460; assay: Antiproliferative activity against human NCI-H460 cells assessed as inhibition of cell growth by MTT assay
[5] = AUClast in male Sprague-Dawley rat at 7 mg/kg,po measured upto 8 hrs by UPLC-MS/MS analysis; assay type: ADME, organism-based; conditions: in vivo
[6] = Tmax in male Sprague-Dawley rat at 7 mg/kg,iv measured upto 8 hrs by UPLC-MS/MS analysis; assay type: ADME, organism-based; conditions: in vivo
[7] = system: MKN-45; assay: Antiproliferative activity against human MKN-45 cells assessed as inhibition of cell growth by MTT assay
[8] = system: PC-3; assay: Antiproliferative activity against human PC-3 cells assessed as inhibition of cell growth by MTT assay
[9] = system: H9c2; assay: Cardioprotective activity against H2O2 induced myocardial damage in rat H9c2 cells harbouring Ad.HDAC6 assessed as decrease in LDH leakage rate at 8 uM by absorbance based analysis; assay type: functional, cell-based
[10] = AUC (0 to infinity) in male Sprague-Dawley rat at 7 mg/kg,po measured upto 8 hrs by UPLC-MS/MS analysis; assay type: ADME, organism-based; conditions: in vivo
[11] = system: Mus musculus; assay: Cardioprotective activity against myocardial ischemia/reperfusion induced C57BL/6J mouse model assessed as alleviation of extensive myocardial necrosis at 10 mg/kg by H and E staining based analysis; assay type: functional, organism-based
[12] = system: H9c2; assay: Cardioprotective activity in H2O2 induced myocardial injury in rat H9c2 cells assessed as downregulation of IL-1 beta mRNA level at upto 8 uM by q-PCR analysis; assay type: functional, cell-based
[13] = AUC (0 to infinity) in male Sprague-Dawley rat at 7 mg/kg,iv measured upto 8 hrs by UPLC-MS/MS analysis; assay type: ADME, organism-based; conditions: in vivo
[14] = system: Mus musculus; assay: Cardioprotective activity against myocardial ischemia/reperfusion induced C57BL/6J mouse model assessed as reduction in myocardial infarction area at 10 mg/kg (reference value: 72.19%); assay type: functional; parameters: scale not given: the % may be the effect or the level left
[15] = system: MGC-803; assay: Antiproliferative activity against human MGC-803 cells assessed as inhibition of cell growth by MTT assay
[16] = target: T1, Protein deacetylase HDAC6 (Mus musculus) (UniProt Q9Z2V5); assay: In vivo inhibition of HDAC6 in C57BL/6 mouse xenografted with MGC-803 cells assessed as effect on acetylated H3 level at 25 to 50 mg/kg, ip by Western blot analysis; assay type: functional, organism-based; conditions: dose 25-50 mg/kg
T1 sequence (whole entry): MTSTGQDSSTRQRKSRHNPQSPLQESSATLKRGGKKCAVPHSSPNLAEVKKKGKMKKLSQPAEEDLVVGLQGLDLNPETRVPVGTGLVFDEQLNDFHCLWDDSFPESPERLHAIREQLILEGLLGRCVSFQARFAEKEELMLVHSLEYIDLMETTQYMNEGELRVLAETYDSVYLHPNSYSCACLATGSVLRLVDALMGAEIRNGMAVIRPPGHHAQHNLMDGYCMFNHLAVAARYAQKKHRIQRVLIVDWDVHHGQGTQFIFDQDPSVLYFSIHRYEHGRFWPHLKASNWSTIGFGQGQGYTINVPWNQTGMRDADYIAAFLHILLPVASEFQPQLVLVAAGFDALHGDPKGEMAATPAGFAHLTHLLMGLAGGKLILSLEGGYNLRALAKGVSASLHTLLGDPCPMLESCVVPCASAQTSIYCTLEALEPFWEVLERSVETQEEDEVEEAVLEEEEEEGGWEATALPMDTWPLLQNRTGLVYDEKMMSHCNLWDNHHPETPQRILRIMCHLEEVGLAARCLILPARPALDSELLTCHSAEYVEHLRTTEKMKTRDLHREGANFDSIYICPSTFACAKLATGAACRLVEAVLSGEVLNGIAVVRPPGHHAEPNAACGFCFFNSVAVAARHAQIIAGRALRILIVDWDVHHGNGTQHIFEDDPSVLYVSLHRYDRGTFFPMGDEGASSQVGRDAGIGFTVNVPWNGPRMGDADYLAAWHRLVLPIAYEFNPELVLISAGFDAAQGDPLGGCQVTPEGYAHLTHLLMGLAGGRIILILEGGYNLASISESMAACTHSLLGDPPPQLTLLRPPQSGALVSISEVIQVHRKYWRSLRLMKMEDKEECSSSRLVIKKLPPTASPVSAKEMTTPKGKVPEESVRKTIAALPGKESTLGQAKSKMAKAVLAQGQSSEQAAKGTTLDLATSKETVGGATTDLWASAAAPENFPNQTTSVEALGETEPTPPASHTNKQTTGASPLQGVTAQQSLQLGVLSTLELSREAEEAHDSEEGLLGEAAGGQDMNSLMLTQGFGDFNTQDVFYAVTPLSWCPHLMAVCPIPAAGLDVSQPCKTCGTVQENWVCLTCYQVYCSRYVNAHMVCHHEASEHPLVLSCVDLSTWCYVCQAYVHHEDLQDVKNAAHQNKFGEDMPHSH

[17] = system: MGC-803; assay: Induction of apoptosis in human MGC-803 cells assessed as early apoptotic cells at 0.5 uM measured after 48 hrs by Annexin V-EGFP and PI staining based flow cytometry analysis (reference value: 0.66%); assay type: functional
[18] = Toxicity in C57BL/6 mouse assessed as cell necrosis at 25 to 50 mg/kg, ip by H and E staining based analysis; assay type: organism-based; conditions: in vivo, dose 25-50 mg/kg
[19] = system: MGC-803; assay: Induction of apoptosis in human MGC-803 cells assessed as necrotic cells at 1 uM measured after 48 hrs by Annexin V-EGFP and PI staining based flow cytometry analysis (reference value: 3.90%); assay type: functional
[20] = system: Mus musculus; assay: Cardioprotective activity against myocardial ischemia/reperfusion induced C57BL/6J mouse model assessed as effect on infarct size of mouse heart at 2.5 to 10 mg/kg by TTC staining based analysis; assay type: functional, organism-based; conditions: dose 2.5-10 mg/kg
[21] = system: MGC-803; assay: Antitumor activity against human MGC-803 cells xenografted in […] mouse model assessed as decrease in HDAC6 expression administered as IP dose by Western blot analysis; assay type: functional, cell-based; conditions: dose 25-50 mg/kg
[22] = system: HGC-27; assay: Antiproliferative activity against human HGC-27 cells assessed as inhibition of cell growth by MTT assay
[23] = system: MGC-803; assay: Induction of apoptosis in human MGC-803 cells assessed as viable cells at 2 uM measured after 48 hrs by Annexin V-EGFP and PI staining based flow cytometry analysis (reference value: 92.3%); assay type: functional; conditions: read-out: Activity
[24] = system: MGC-803; assay: Induction of apoptosis in human MGC-803 cells assessed as decrease in Bcl-2 expression by Western blot analysis; assay type: functional, cell-based; conditions: dose <= 2.0 µM
[25] = system: SGC-7901; assay: Antiproliferative activity against human SGC-7901 cells assessed as inhibition of cell growth by MTT assay
[26] = system: Mus musculus; assay: Cardioprotective activity against myocardial ischemia/reperfusion induced C57BL/6J mouse model assessed as alleviation of severe edema at 10 mg/kg by H and E staining based analysis; assay type: functional, organism-based

For `O=C(NO)c1ccc(CNC(=O)c2cc(-c3ccc(F)cc3)cn3ccnc23)cc1`, the Activity [1] was “Active”, the IC50 [2] was 2250 nM and the half-life [3] was 215 min. For the same molecule, the IC50 [4] was greater than 10 µM, the AUC(0-t) at 8 h [5] was 54.2 ng·h/mL and the Tmax [6] was 5 min. The IC50 [7] was 7.43 µM, the IC50 [8] was greater than 10 µM and the Activity [9] was “Active”. The AUC(0-inf) [10] was 105 ng·h/mL, the Activity [11] was “Active” and the Activity [12] was “Active”. It also gave an AUC(0-inf) [13] of 868 ng·h/mL, an Activity [14] of 37.64% and an IC50 [15] of 950 nM. The inhibition [16] was “Active”, the Activity [17] was 0.52% and the Activity [18] was “Non-Toxic”. For the same molecule, the Activity [19] was 4.7%, the Activity [20] was “inactive” and the Activity [21] was “Dose-Dependent Effect”. For the same molecule, the IC50 [22] was 2800 nM, the viability at 2 µM [23] was 70.1% and the Activity [24] was “Dose-Dependent Effect”. For the same molecule, the IC50 [25] was 8.34 µM and the Activity [26] was “Active”.
